In US20260083865A1, “PROSTATE SPECIFIC MEMBRANE ANTIGEN (PSMA) LIGANDS AND USE THEREOF” (priority 2022, published 2026):
Numbered stars: 1 amine (or outer) side, 2 acyl side, 3 side chain; on linkers, the order of the positions; unused ones are H or OH. Bridge positions count the residues as written; N and C are the ends. Square brackets hold non-standard residues; d marks the D form. Peptide text beside a SMILES is read from it. * marks the point of attachment. ξ: configuration not given here. TtdsdLys(DOTA)NH2 = NC(=O)[C@@H](CCCCNC(=O)CN1CCN(CC(=O)O)CCN(CC(=O)O)CCN(CC(=O)O)CC1)NC(=O)CCC(=O)NCCCOCCOCCOCCCN*; X3 = O=C(O)CN1CCN(CC(=O)O)CCN(CC(=O)NCCCOCCOCCOCCCN*)CCN(CC(=O)O)CC1; DOTA = O=C(O)CN1CCN(CC(=O)O)CCN(CC(=O)*)CCN(CC(=O)O)CC1; Trp(5-Cl) = N[C@@H](Cc1c[nH]c2ccc(Cl)cc12)C(=O)O; Trp(6-Cl) = N[C@@H](Cc1c[nH]c2cc(Cl)ccc12)C(=O)O; Phe(4-Cl) = N[C@@H](Cc1ccc(Cl)cc1)C(=O)O; Arg(Me) = CNC(=N)NCCC[C@H](N)C(=O)O; X1 = O=C(CC1CCN([*:1])CC1)[*:2]; Cit = NC(=O)NCCC[C@H](N)C(=O)O; Lys(Me) = CNCCCC[C@H](N)C(=O)O; αMeD = C[C@](N)(CC(=O)O)C(=O)O; Suc = O=C(CCC(=O)[*:2])[*:1]; Tle = CC(C)(C)[C@H](N)C(=O)O; NHCH2CH2NMe2 = CN(C)CCN*; ξL = CC(C)CC(N)C(=O)O; Aib = CC(C)(N)C(=O)O; GABA = NCCCC(=O)O

Tests used:
[1] = biological target: T1, PSMA-expressing C4-2 cells (Homo sapiens, UniProt Q04609); assay: FACS binding assay (competition with 50 nM PSM-0183); details: FACS binding, PSMA-expressing C4-2 cells; pIC50 category; read-out: pIC50 [C4-2] CAT (converted)
T1 construct: PSMA-expressing C4-2 cells (ATCC, Cat. No. CRL-3314) were cultured in RPMI-1640; host or cells: C4-2 cells
T1 sequence (Q04609 whole entry): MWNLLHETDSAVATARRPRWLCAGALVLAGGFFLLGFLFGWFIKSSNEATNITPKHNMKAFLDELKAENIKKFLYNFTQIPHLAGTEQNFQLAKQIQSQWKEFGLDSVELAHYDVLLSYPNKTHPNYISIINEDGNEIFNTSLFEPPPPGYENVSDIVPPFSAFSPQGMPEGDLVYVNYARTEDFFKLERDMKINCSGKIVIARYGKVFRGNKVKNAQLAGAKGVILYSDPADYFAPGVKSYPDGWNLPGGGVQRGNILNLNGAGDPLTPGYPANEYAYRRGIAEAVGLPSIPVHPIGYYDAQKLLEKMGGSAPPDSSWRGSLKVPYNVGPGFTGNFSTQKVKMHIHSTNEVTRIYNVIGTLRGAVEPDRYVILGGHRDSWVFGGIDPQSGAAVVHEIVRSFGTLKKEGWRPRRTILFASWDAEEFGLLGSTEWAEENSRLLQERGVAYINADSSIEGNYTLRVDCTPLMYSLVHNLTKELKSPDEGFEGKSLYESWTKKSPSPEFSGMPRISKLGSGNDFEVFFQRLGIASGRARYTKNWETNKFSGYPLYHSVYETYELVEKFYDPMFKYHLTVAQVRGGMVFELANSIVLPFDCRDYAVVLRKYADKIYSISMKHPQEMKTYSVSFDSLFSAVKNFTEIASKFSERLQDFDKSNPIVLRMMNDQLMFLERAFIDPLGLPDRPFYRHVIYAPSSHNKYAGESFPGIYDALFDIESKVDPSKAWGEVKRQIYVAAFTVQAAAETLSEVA
Procedure, shortened: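 Competition format: fluorescent tracer PSM-0183 (50 nM) displaced from PSMA on C4-2 cells by a test compound titration over 1 h at 4 °C. Bound tracer was quantified as flow-cytometric AF488 median fluorescence after washing. Four-parameter logistic fits of MFI data gave IC50 and pIC50.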

[2] = biological target: T2, Fc-fusion protein of human PSMA (hPSMA-Fc) (Homo sapiens, UniProt Q04609); assay: Surface plasmon resonance assay (Biacore T200, single cycle kinetic); type: binding; details: PSMA SPR assay, hPSMA-Fc, 25° C.; pKD category; read-out: pKD CAT (converted)
T2 construct: purchased Acro Biosystems PSA-H5264
T2 sequence (Q04609 44-750 limits assumed): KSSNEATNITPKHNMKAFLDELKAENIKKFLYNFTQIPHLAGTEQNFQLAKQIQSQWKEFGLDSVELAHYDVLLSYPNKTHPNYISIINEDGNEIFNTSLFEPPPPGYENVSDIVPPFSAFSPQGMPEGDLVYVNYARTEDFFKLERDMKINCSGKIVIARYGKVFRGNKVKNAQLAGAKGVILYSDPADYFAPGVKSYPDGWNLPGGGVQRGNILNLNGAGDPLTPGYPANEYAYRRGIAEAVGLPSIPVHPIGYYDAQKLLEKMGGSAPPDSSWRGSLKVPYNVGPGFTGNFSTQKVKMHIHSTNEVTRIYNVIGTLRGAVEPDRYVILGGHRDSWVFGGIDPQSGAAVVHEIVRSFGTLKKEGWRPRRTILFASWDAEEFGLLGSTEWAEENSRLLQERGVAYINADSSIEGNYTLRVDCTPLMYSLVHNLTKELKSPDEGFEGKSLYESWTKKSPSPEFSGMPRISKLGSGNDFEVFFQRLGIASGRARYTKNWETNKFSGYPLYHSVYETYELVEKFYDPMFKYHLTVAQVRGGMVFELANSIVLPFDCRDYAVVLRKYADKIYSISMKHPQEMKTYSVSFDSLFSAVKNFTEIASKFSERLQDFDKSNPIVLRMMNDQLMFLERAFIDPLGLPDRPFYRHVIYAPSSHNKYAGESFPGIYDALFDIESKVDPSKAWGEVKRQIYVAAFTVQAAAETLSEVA
Procedure, shortened: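 KD, expressed as pKD, came from 1:1 Langmuir fits of reference- and buffer-blank-subtracted SPR data. The runs were single-cycle kinetics at 25° C in HBST/0.1% DMSO over human PSMA-Fc, captured to ~1000 RU on a peptide-coated CM5 surface and regenerated with 10 mM glycine pH 1.5.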

SMILES | IC50 [1] [nM] | Kd [2] [nM]
CC(=O)N[C@H](C(=O)NC(C)(C)C(=O)N[C@@H](Cc1ccccc1)C(=O)N[C@H]1CSSC[C@@H](C(=O)N[C@H](C(=O)NCCCC(N)=O)C(C)(C)C)NC(=O)[C@H](CC(N)=O)NC(=O)C(C)(C)NC(=O)[C@H](CCCNC(=N)N)NC(=O)[C@H](CCCCN)NC1=O)[C@@H](C)O [PSM-0297, Ac-Thr-Aib-Pho-[Cys-Lys-Arg-Aib-Asn-Cys]-Tle-Gab-NH2] (Ac-T[Aib]FCKR[Aib]NC[Tle][GABA]-NH2; disulfide 4-9) | < 200 | < 12.6
CC(=O)N[C@@H](C)C(=O)N[C@@H](Cc1ccccc1)C(=O)N[C@H]1CSSC[C@@H](C(=O)N[C@@H](CC(C)C)C(=O)N[C@H](C(=O)N[C@@H](CC(=O)O)C(=O)NCCCOCCOCCOCCCNC(=O)CCC(=O)N[C@H](CCCCNC(=O)CN2CCN(CC(=O)O)CCN(CC(=O)O)CCN(CC(=O)O)CC2)C(N)=O)[C@@H](C)O)NC(=O)[C@H](CC(N)=O)NC(=O)[C@H](C)NC(=O)[C@H](CCCNC(=N)N)NC(=O)[C@H](CCCCN)NC1=O [PSM-0299, Ac-Ala-Phe-[Cys-Lys-Arg-Ala-Asn-Cys]-Leu-Thr-Asp-Ttds-lys(DOTA)-NH2] (Ac-AFCKRANCLTD-{TtdsdLys(DOTA)NH2}; disulfide 3-8) | 1260 to 3160 | 12.6 to 126
CC(=O)N[C@H](C(=O)NC(C)(C)C(=O)N[C@@H](Cc1ccccc1)C(=O)N[C@H]1CSSC[C@@H](C(=O)N[C@H](C(=O)O)C(C)(C)C)NC(=O)[C@H](CC(N)=O)NC(=O)C(C)(C)NC(=O)[C@H](CCCNC(=N)N)NC(=O)[C@H](CCCCN)NC1=O)[C@@H](C)O [PSM-0300, Ac-Thr-Aib-Phe-[Cys-Lys-Arg-Aib-Asn-Cys]-Tle-OH] (Ac-T[Aib]FCKR[Aib]NC[Tle]-OH; disulfide 4-9) | < 200 | < 12.6
CC(C)CC(NC(=O)[C@@H]1CSSC[C@H](NC(=O)[C@H](Cc2ccccc2)NC(=O)[C@H](C)NC(=O)[C@@H](NC(=O)CCC(=O)NCCCOCCOCCOCCCNC(=O)CN2CCN(CC(=O)O)CCN(CC(=O)O)CCN(CC(=O)O)CC2)[C@@H](C)O)C(=O)N[C@@H](CCCCN)C(=O)N[C@@H](CCCNC(=N)N)C(=O)N[C@@H](C)C(=O)N[C@@H](CC(N)=O)C(=O)N1)C(=O)N[C@H](C(N)=O)[C@@H](C)O (stereo partly drawn) [PSM-0305, DOTA-Ttds-Thr-Ala-Phe-[Cys-Lys-Arg-Ala-Asn-Cys]-Lou-Thr-NH2] ({X3-Suc}-TAFCKRANC[ξL]T-NH2; disulfide 4-9) | 200 to 1260 | 126 to 501
CC(=O)N[C@H](C(=O)NC(C)(C)C(=O)N[C@@H](Cc1ccccc1)C(=O)N[C@H]1CSSC[C@@H](C(=O)N[C@H](C(=O)N[C@H](C(=O)N[C@@H](CC(=O)O)C(N)=O)[C@@H](C)O)C(C)(C)C)NC(=O)[C@H](CC(N)=O)NC(=O)[C@H](C)NC(=O)[C@H](CCCNC(N)=O)NC(=O)[C@H](CCCCN)NC1=O)[C@@H](C)O [PSM-0307, Ac-Thr-Aib-Pho-[Cys-Lys-Cit-Ala-Asn-Cys]-Tle-Thr-Asp-NH2] (Ac-T[Aib]FCK[Cit]ANC[Tle]TD-NH2; disulfide 4-9) | < 200 | < 12.6

Second part, the compound after the results:

IC50 [1] [nM] | Kd [2] [nM] | SMILES
200 to 1260 | 12.6 to 126 | CC(=O)NC(=N)NCCC[C@@H]1NC(=O)[C@H](CCCCN)NC(=O)[C@@H](NC(=O)[C@H](Cc2ccc(Cl)cc2)NC(=O)C(C)(C)NC(C)=O)CSSC[C@@H](C(=O)N[C@H](C(=O)N[C@H](C(=O)N2CCC(CC(=O)N[C@H](CCCCNC(=O)CN3CCN(CC(=O)O)CCN(CC(=O)O)CCN(CC(=O)O)CC3)C(N)=O)CC2)[C@@H](C)O)C(C)(C)C)NC(=O)[C@H](CC(N)=O)NC(=O)C(C)(C)NC1=O [PSM-0298, Ac-Aib-Pcf-[Cys-Lys-Arg(Ac)-Aib-Asn-Cys]-Tle-Thr-Cmp-lys(DOTA)-NH2] (Ac-[Aib][Phe(4-Cl)]CKR(Ac)[Aib]NC[Tle]T[X1][dK](DOTA)-NH2; disulfide 3-8)
< 200 | < 12.6 | C[C@@H](O)[C@H](NC(=O)[C@@H](NC(=O)[C@@H]1CSSC[C@H](NC(=O)[C@H](Cc2ccc(Cl)cc2)NC(=O)C(C)(C)NC(=O)[C@@H](NC(=O)CC2CCN(C(=O)CN3CCN(CC(=O)O)CCN(CC(=O)O)CCN(CC(=O)O)CC3)CC2)[C@@H](C)O)C(=O)N[C@@H](CCCCN)C(=O)N[C@@H](CCCNC(=N)N)C(=O)N[C@@](C)(CC(=O)O)C(=O)N[C@@H](CC(N)=O)C(=O)N1)C(C)(C)C)C(N)=O [PSM-0302, DOTA-Cmp-Thr-Aib-Pcf-[Cys-Lys-Arg-Amd-Asn-Cys]-Tle-Thr-NH2] ({DOTA}-[X1]T[Aib][Phe(4-Cl)]CKR[αMeD]NC[Tle]T-NH2; disulfide 5-10)
200 to 1260 | 12.6 to 126 | CC(=O)N[C@H](C(=O)NC(C)(C)C(=O)N[C@@H](Cc1ccccc1)C(=O)N[C@H]1CSSC[C@@H](C(=O)N[C@H](C(=O)N[C@H](C(=O)NCCCOCCOCCOCCCNC(=O)CCC(=O)N[C@H](CCCCNC(=O)CN2CCN(CC(=O)O)CCN(CC(=O)O)CCN(CC(=O)O)CC2)C(N)=O)[C@@H](C)O)C(C)(C)C)NC(=O)[C@H](CC(N)=O)NC(=O)C(C)(C)NC(=O)[C@H](CCC(N)=O)NC(=O)[C@H](CCCCN)NC1=O)[C@@H](C)O [PSM-0303, Ac-Thr-Aib-Phe-[Cys-Lys-Gln-Aib-Asn-Cys]-Tle-Thr-Ttds-lys(DOTA)-NH2] (Ac-T[Aib]FCKQ[Aib]NC[Tle]T-{TtdsdLys(DOTA)NH2}; disulfide 4-9)
200 to 1260 | < 12.6 | C[C@@H](O)[C@H](NC(=O)[C@@H](NC(=O)[C@@H]1CSSC[C@H](NC(=O)[C@H](Cc2c[nH]c3cc(Cl)ccc23)NC(=O)C(C)(C)NC(=O)[C@@H](NC(=O)CC2CCN(C(=O)CN3CCN(CC(=O)O)CCN(CC(=O)O)CCN(CC(=O)O)CC3)CC2)[C@@H](C)O)C(=O)N[C@@H](CCCCN)C(=O)N[C@@H](CCCNC(N)=O)C(=O)NC(C)(C)C(=O)N[C@@H](CC(N)=O)C(=O)N1)C(C)(C)C)C(N)=O [PSM-0304, DOTA-Cmp-Thr-Aib-6Clw-[Cys-Lys-Cit-Aib-Asn-Cys]-Tle-Thr-NH2] ({DOTA}-[X1]T[Aib][Trp(6-Cl)]CK[Cit][Aib]NC[Tle]T-NH2; disulfide 5-10)
< 200 | 12.6 to 126 | C[C@@H](O)[C@H](NC(=O)CC1CCN(C(=O)CN2CCN(CC(=O)O)CCN(CC(=O)O)CCN(CC(=O)O)CC2)CC1)C(=O)NC(C)(C)C(=O)N[C@@H](Cc1ccc(Cl)cc1)C(=O)N[C@H]1CSSC[C@@H](C(=O)N[C@H](C(=O)NCCN(C)C)C(C)(C)C)NC(=O)[C@H](CC(N)=O)NC(=O)C(C)(C)NC(=O)[C@H](CCCNC(=N)N)NC(=O)[C@H](CCCCN)NC1=O [PSM-0306, DOTA-Cmp-Thr-Aib-Pcf-[Cys-Lys-Arg-Aib-Asn-Cys]-Tle-en (Me) 2] ({DOTA}-[X1]T[Aib][Phe(4-Cl)]CKR[Aib]NC[Tle]-NHCH2CH2NMe2; disulfide 5-10)
200 to 1260 | 126 to 501 | CNCCCC[C@@H]1NC(=O)[C@@H](NC(=O)[C@H](Cc2c[nH]c3ccc(Cl)cc23)NC(=O)C(C)(C)NC(=O)[C@@H](NC(=O)CC2CCN(C(=O)CN3CCN(CC(=O)O)CCN(CC(=O)O)CCN(CC(=O)O)CC3)CC2)[C@@H](C)O)CSSC[C@@H](C(=O)N[C@H](C(=O)N[C@H](C(N)=O)[C@@H](C)O)C(C)(C)C)NC(=O)[C@H](CC(N)=O)NC(=O)C(C)(C)NC(=O)[C@H](CCCNC(=N)NC)NC1=O [PSM-0308, DOTA-Cmp-Thr-Aib-5Clw-[Cys-Lys(Me)-Arg(Me)-Aib-Asn-Cys]-Tle-Thr-NH2] ({DOTA}-[X1]T[Aib][Trp(5-Cl)]C[Lys(Me)][Arg(Me)][Aib]NC[Tle]T-NH2; disulfide 5-10)
